Where two headings read alike, the source gives them in different places.
Columns and labels:
[1] = test system: MLKL phosphorylation in HT29-L23 human colorectal adenocarcinoma cells; assay: MLKL Phosphorylation High-Content Assay; assay type: cell-based
Description: MLKL Phosphorylation High-Content Assay
Following six hours incubation at 37° C. […] MLKL phosporylation was detected using anti-MLKL (phospho S358) antibody (Abcam #ab187091) (1:1000 dilution in Blocking Buffer [PBS supplemented with 0.1% BSA]) with overnight incubation at 4° C. […] Following another three cycles of washes in PBS, the microplates were sealed, and cellular images were acquired in the Cellomics ArrayScan VTI high-content imager equipped with an X1 camera. […] The image sets were analyzed using the Compartmental Analysis Bioapplication software (Cellomics). The level of MLKL phosphorylation was quantified as MEAN CircRingAvgIntenRatio. […] The data were fitted using the 4-parameter logistic equation to calculate the IC50 and Ymax values.

[2] = molecular target: T1, His-GST-TVMV-hRIPK1(1-324) (Homo sapiens, UniProt Q13546); assay: RIPK1 HTRF Binding Assay
T1 construct: The coding region of human RIPK1(1-324) flanked by NdeI site at 5′ end; made in house; host or cells: Spodoptera frugiperda (Sf9) insect cells, baculovirus
T1 sequence (Q13546 1-324): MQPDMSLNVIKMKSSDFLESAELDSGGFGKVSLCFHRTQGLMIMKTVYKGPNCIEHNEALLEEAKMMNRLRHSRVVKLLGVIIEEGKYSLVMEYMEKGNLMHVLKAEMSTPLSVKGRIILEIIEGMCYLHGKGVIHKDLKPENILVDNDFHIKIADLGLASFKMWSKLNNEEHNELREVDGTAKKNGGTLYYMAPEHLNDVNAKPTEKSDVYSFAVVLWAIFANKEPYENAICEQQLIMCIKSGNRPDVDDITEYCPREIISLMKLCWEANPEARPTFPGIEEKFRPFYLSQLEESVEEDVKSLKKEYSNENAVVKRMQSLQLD
Description: The plate was incubated at rt for 1 h.
Cloning and Baculovirus Expression of RIPK1 Construct
Baculovirus was generated for the construct using the Bac-to-Bac baculovirus expression system (Invitrogen) according to the manufacturer's protocol. Briefly, recombinant bacmid was isolated from transformed DH10Bac E. coli competent cells (Invitrogen) and used to transfect Spodoptera frugiperda (Sf9) insect cells (Invitrogen). Baculovirus was harvested 72 hours post transfection and a virus stock was prepared by infecting fresh Sf9 cells at a 1/1000 (v/v) ratio for 66 hours.
The production was carried out either at a 10 L scale in a 22 L cellbag (GE Healthcare Bioscience, Pittsburgh, Pa.) or at a 20 L scale in a 50 L cellbag using WAVE-Bioreactor System 20/50 (GE Healthcare Bioscience). The infected cells were harvested by centrifugation at 2000 rpm for 20 min at 4° C. in a SORVALL® RC12BP centrifuge. The cell pellets was stored at −70° C. before protein was purified.
RIPK1 containing cell paste was resuspended in 50 mM Tris pH 7.5, 150 mM NaCl, 10 mM imidazole, 5% glycerol, 5 mM MgSO4, 1 mM TCEP, 25 U/ml Benzonase, and Complete Protease Inhibitor tablets (1/50 ml, Roche Diagnostics, Indianapolis, Ind.). […] The suspension was clarified by centrifugation at 136,000×g for 40 min, at 4° C. The lysate was decanted from the pellet and passed through a 5 ml NiNTA Superflow cartridge (Qiagen, Valencia, Calif.) using an AKTA Pure (GE Healthcare). Column was eluted with 10 CV linear gradient into 50 mM Tris 7.5, 150 mM NaCl, 500 mM imidazole, 5% glycerol, 1 mM TCEP. Peak fractions were pooled and loaded directly onto 5 ml GSTrap 4B column (GE Healthcare). Column was washed with 50 mM Tris 7.0, 150 mM NaCl, 5% glycerol, 1 mM DTT and eluted in 10 CV linear gradient into 50 mM Tris 8.0, 150 mM NaCl, 20 mM reduced glutathione, 5% glycerol, 1 mM DTT. Fractions identified by SDS-PAGE as containing RIPK1 were pooled and concentrated using 30 kDa MWCO spin concentrators (Amicon Ultra-15, Millipore, Billerica, Mass.) and loaded onto a HiLoad 26/600 Superdex 200 column (GE Healthcare) equilibrated in 25 mM Tris 7.5, 150 mM NaCl, 2 mM TCEP, 5% glycerol.
Protein was aliquoted and stored at −80° C.

[3] = Homo sapiens, x marks IC50 class 20-200 nM, read-out: pMLKL cell activity 20-200 nM
[4] = x marks IC50 class 20-200 nM, read-out: RIPK1 HTRF binding 20-200 nM
[5] = x marks IC50 class <20 nM, read-out: RIPK1 HTRF binding <20 nM
[6] = Homo sapiens, x marks IC50 class <20 nM, read-out: pMLKL cell activity <20 nM
[7] = Homo sapiens, x marks IC50 class >200 nM, read-out: pMLKL cell activity >200 nM

| Compound | IC50 [1, 3] | IC50 [2, 5] | further results |
| --- | --- | --- | --- |
| [2H]C([2H])(NC(=O)c1cc(-c2ccn3nc(N)nc3c2)cnc1OC)c1cc(C(F)(F)F)ccc1F [Example 349, 5-(2-amino-[1,2,4]triazolo[1,5-a]pyridin-7-yl)-N-((2-fluoro-5-(trifluoromethyl)phenyl)methyl-d2)-2-methoxynicotinamide] | 20 to 200 nM | – | IC50 [2, 4]: 20 to 200 nM |
| Cc1nc(C)c(-c2ccn3nc(N)nc3c2)cc1C(=O)NCc1cc(F)cc(F)c1OC1CC(C)OC(C)C1 (stereo not drawn) [Example 297, 5-(2-amino-[1,2,4]triazolo[1,5-a]pyridin-7-yl)-N-(2-((2,6-dimethyltetrahydro-2H-pyran-4-yl)oxy)-3,5-difluorobenzyl)-2,6-dimethylnicotinamide] | 20 to 200 nM | – | IC50 [2, 4]: 20 to 200 nM |
| Nc1nc2cc(-c3cncc(C(=O)NCc4cc(F)ccc4OC4CCCC4)c3)ccn2n1 [Example 41, 5-{2-Amino-[1,2,4]triazolo[1,5-a]pyridin-7-yl}-N-{[2-(cyclopentyloxy)-5-fluorophenyl]methyl}pyridine-3-carboxamide] | 20 to 200 nM | < 20 nM | – |
| Nc1nc2cc(-c3cncc(C(=O)NCc4c(F)cccc4OC4CCCC4)c3)ccn2n1 [Example 40, 5-{2-Amino-[1,2,4]triazolo[1,5-a]pyridin-7-yl}-N-{[2-(cyclopentyloxy)-6-fluorophenyl]methyl}pyridine-3-carboxamide] | 20 to 200 nM | < 20 nM | – |
| [2H]C([2H])([2H])Oc1nc(C)c(-c2ccn3nc(N)nc3c2)cc1C(=O)NC(C)c1ccccc1OC(F)(F)F (single isomer, unassigned) [Example 98-2, 5-{2-amino-[1,2,4]triazolo[1,5-a]pyridin-7-yl}-2-(deutero)methoxy-6-methyl-N-{1-[2-(trifluoromethoxy)phenyl]ethyl}pyridine-3-carboxamide] | – | < 20 nM | IC50 [1, 6]: < 20 nM |
| COc1nc(C)c(-c2ccn3nc(N)nc3c2)cc1C(=O)NCc1ccccc1OCC1CCCC1 [Example 207, 5-{2-amino-[1,2,4]triazolo[1,5-a]pyridin-7-yl}-N-{[2-(cyclopentylmethoxy)phenyl]methyl}-2-methoxy-6-methylpyridine-3-carboxamide] | – | < 20 nM | IC50 [1, 6]: < 20 nM |
| Nc1nc2cc(-c3cnc(N)c(C(=O)NCc4c(F)cccc4OCC4CC4)c3)ccn2n1 [Example 53, 2-Amino-5-{2-amino-[1,2,4]triazolo[1,5-a]pyridin-7-yl}-N-{[2-(cyclopropylmethoxy)-6-fluorophenyl]methyl}pyridine-3-carboxamide] | 20 to 200 nM | < 20 nM | – |
| COc1ncc(-c2ccn3nc(N)nc3c2)cc1C(=O)NCc1ccccc1OCC(C)C [Example 340, 5-(2-amino-[1,2,4]triazolo[1,5-a]pyridin-7-yl)-N-(2-isobutoxybenzyl)-2-methoxynicotinamide] | 20 to 200 nM | < 20 nM | – |
| Cc1ccc(-c2ccn3nc(N)nc3c2)nc1C(=O)NCCC(C)c1ccccc1 (stereo not drawn) [Example 404, 6-(2-amino-[1,2,4]triazolo[1,5-a]pyridin-7-yl)-3-methyl-N-(3-phenylbutyl)picolinamide] | 20 to 200 nM | – | IC50 [2, 4]: 20 to 200 nM |
| Cc1ccc(-c2ccn3nc(N)nc3c2)nc1C(=O)NCC[C@@H](O)c1ccc(Cl)cc1 [Example 402, (R)-6-(2-amino-[1,2,4]triazolo[1,5-a]pyridin-7-yl)-N-(3-(4-chlorophenyl)-3-hydroxypropyl)-3-methylpicolinamide] | 20 to 200 nM | – | IC50 [2, 4]: 20 to 200 nM |
| Nc1nc2cc(-c3cnc(N)c(C(=O)NCc4ccccc4OCC4CC4)c3)ccn2n1 [Example 56, 2-Amino-5-{2-amino-[1,2,4]triazolo[1,5-a]pyridin-7-yl}-N-{[2-(cyclopropylmethoxy)phenyl]methyl}pyridine-3-carboxamide] | 20 to 200 nM | < 20 nM | – |
| Cc1nc(C)c(-c2ccn3nc(N)nc3c2)cc1C(=O)NCc1c(F)cc(F)cc1OCC1CCCC1 [Example 177, 5-{2-amino-[1,2,4]triazolo[1,5-a]pyridin-7-yl}-N-{[2-(cyclopentylmethoxy)-4,6-difluorophenyl]methyl}-2,6-dimethylpyridine-3-carboxamide] | 20 to 200 nM | < 20 nM | – |
| [2H]C([2H])([2H])[C@@H](NC(=O)c1nc(-c2ccn3nc(N)nc3c2)cnc1OC)c1cc(OC(F)(F)F)ccc1F [Example 383, (R)-6-(2-amino-[1,2,4]triazolo[1,5-a]pyridin-7-yl)-N-(1-(2-fluoro-5-(trifluoromethoxy)phenyl)ethyl-2,2,2-d3)-3-methoxypyrazine-2-carboxamide] | – | < 20 nM | IC50 [1, 7]: > 200 nM |
| CCCOc1ncc(-c2ccn3nc(N)nc3c2)cc1C(=O)NCCC(C)c1ccccc1 (stereo not drawn) [Example 69, 5-{2-Amino-[1,2,4]triazolo[1,5-a]pyridin-7-yl}-N-(3-phenylbutyl)-2-propoxypyridine-3-carboxamide] | – | < 20 nM | IC50 [1, 7]: > 200 nM |
| Cc1ncc(-c2ccn3nc(N)nc3c2)cc1C(=O)NCc1ccccc1OCC(C)C [Example 305, 5-(2-amino-[1,2,4]triazolo[1,5-a]pyridin-7-yl)-N-(2-isobutoxybenzyl)-2-methylnicotinamide] | 20 to 200 nM | – | IC50 [2, 4]: 20 to 200 nM |
| COc1nc(C)c(-c2ccn3nc(N)nc3c2)cc1C(=O)NCc1cc(F)cc(F)c1OC1CCCOC1 (stereo not drawn) [Example 350, 5-(2-amino-[1,2,4]triazolo[1,5-a]pyridin-7-yl)-N-(3,5-difluoro-2-((tetrahydro-2H-pyran-3-yl)oxy)benzyl)-2-methoxy-6-methylnicotinamide] | – | < 20 nM | IC50 [1, 6]: < 20 nM |
| Cc1ncc(-c2ccn3nc(N)nc3c2)cc1C(=O)Nc1cn(Cc2ccccc2)cn1 [Example 319, 5-(2-amino-[1,2,4]triazolo[1,5-a]pyridin-7-yl)-N-(1-benzyl-1H-imidazol-4-yl)-2-methylnicotinamide] | 20 to 200 nM | – | – |
| COc1ncc(-c2ccn3nc(N)nc3c2)cc1C(=O)NCc1cccc(F)c1C(=O)N1CCC(F)(F)C1 [Example 378, 5-(2-amino-[1,2,4]triazolo[1,5-a]pyridin-7-yl)-N-(2-(3,3-difluoropyrrolidine-1-carbonyl)-3-fluorobenzyl)-2-methoxynicotinamide] | 20 to 200 nM | – | – |
| COc1ncc(-c2ccc3nc(N)nn3c2)cc1NC(=O)Cc1cc(OC(F)(F)F)ccc1F [Example 418, N-(5-(2-amino-[1,2,4]triazolo[1,5-a]pyridin-6-yl)-2-methoxypyridin-3-yl)-2-(2-fluoro-5-(trifluoromethoxy)phenyl)acetamide] | 20 to 200 nM | – | – |
| COc1nc(C)c(-c2ccn3nc(N)nc3c2)cc1C(=O)NCc1cccc(F)c1C(=O)N1CCC(F)(F)C1 [Example 382, 5-(2-amino-[1,2,4]triazolo[1,5-a]pyridin-7-yl)-N-(2-(3,3-difluoropyrrolidine-1-carbonyl)-3-fluorobenzyl)-2-methoxy-6-methlnicotinamide] | – | – | IC50 ([1]; x marks IC50 class <20 nM, read-out: pMLKL cell activity <20 nM): < 20 nM |
